Columns and labels:
T cell line KSI 10B7 = experiment: Mapping of epitope(s) recognised by T cell line KSI 10B7, IFN-γ ELISPOT with T2 cells as APC; type: cell-based, human; conditions: individual peptides, triplicate
Method: T cells were tested by IFN-γ ELISPOT assays against either the whole BAX peptide mixture (1-23), or different sub-pools (1-9, 10-15, 16-23) or individual peptides (10, 11, 12, 13, 14 and 15). T2 cells (which only express HLA-A*0201) were used as APC. All combinations were tested in triplicate, with 600 spots being the maximum number that could be counted in these assays; and
Further immunomagnetic enrichment, flow sorting and expansion, led to the derivation of a T cell line (KSI 10B7), with 100% specificity for BAX peptides that bound to HLA-A*0201 (data not shown). This T cell line was tested by IFN-γ ELISPOT assays against either the whole BAX peptide mixture (1-23), or different sub-pools (1-9, 10-15, 16-23) or individual peptides (10, 11, 12, 13, 14 and 15). All combinations were tested in triplicate, with 600 spots being the maximum number that could be counted in these assays. KSI 10B7 T cells recognised two similar BAX peptides (10 and 13, FIG. 9). Both these peptides were predicted to bind to HLA-A*0201 (Table 4) and had similar amino acid sequences ([…] and […]). It is believed that the KSI 10B7 T cells recognised the […] sequence that is common to both peptides.

[1] = system: IFN-γ producing T cells specific for the immunising peptide; experiment: In vivo immunogenicity in HLA-A*0201 transgenic mice, IFN-γ ELISPOT on splenocytes; parameters: species or system HLA-A2/Kb transgenic mice; conditions: responding/immunised mice; 100 μg peptide in incomplete freunds adjuvant, splenocytes after ten to eleven days
[2] = system: CD8+ T cells recognising Rb7 peptide; experiment: Detection of peptide specific CD8+ T cells in patient blood with fluoresceinated multimeric HLA-A2/peptide complexes; type: cell-based, human; conditions: 4 patients tested (3 with cervical cancer, 1 CIN3); low frequency
Method: T cells reactive against peptides of the invention should be preferentially found in HLA-A2 patients with cervical cancer. Blood samples from 4 patients (3 with cervical cancer, 1 with premalignant disease, CIN3) were tested for the presence of CD8^+ T cells recognising Rb7 peptide. Fluoresceinated multimeric HLA-A2/peptide complexes were used to measure numbers of peptide specific T cells by flow cytometry (10). […] These frequencies were similar to those previously obtained for HPV16 E7 peptide specific T cells (10).

[3] = system: CD8+ pentamer+ T lymphocytes; experiment: Peptide:HLA-A2 pentamer staining of CD8+ T cells from healthy HLA-A2+ donors after 14 days culture with peptide; type: cell-based, human
Method: On day 0 and day 14 days, the numbers of peptide specific CD8^+ T cells were measured using appropriate fluoresceinated peptide:HLA-A2 pentamers. These were analysed on a flow cytometer and expressed as % of gated cells, excluding dead and […] cells.

| Substance | Recognition by KSI 10B7 T cells (T cell line KSI 10B7) | Mice with significant T cell responses (IFN-γ ELISPOT) [1] | Patients in whose blood T cells specific for Rb7 peptide could be detected [2] [patients] | Frequency of peptide specific T lymphocytes, in words ([3]; 8 healthy donors (all HLA-A2+)) | Healthy donors in whom T lymphocytes recognising the peptide could be detected ([3]; 8 healthy donors (all HLA-A2+) tested) [healthy donors] | Frequency of CD8+ pentamer+ cells ([3]; healthy donor 1, 14 days culture with peptide) | Frequency of CD8+ pentamer+ cells ([3]; healthy donor 2, 14 days culture with peptide) | Frequency of CD8+ pentamer+ cells ([3]; healthy donor 3, 14 days culture with peptide) | Frequency of CD8+ pentamer+ cells ([3]; healthy donor 4, 14 days culture with peptide) | Frequency of CD8+ pentamer+ cells ([3]; healthy donor 5, 14 days culture with peptide) | Frequency of CD8+ pentamer+ cells ([3]; healthy donor 6, 14 days culture with peptide) | Frequency of CD8+ pentamer+ cells ([3]; healthy donor 7, 14 days culture with peptide) | Frequency of CD8+ pentamer+ cells ([3]; healthy donor 8, 14 days culture with peptide) |
| --- | --- | --- | --- | --- | --- | --- | --- | --- | --- | --- | --- | --- | --- |
| IMGWTLDFL [BAX peptide 13] | recognised | – | – | – | – | – | – | – | – | – | – | – | – |
| Rb7: peptide from Rb485-493 (Rb7) protein, derived from human Rb protein (SLLACALEV) | – | 7/10 | 2 | variable but generally low frequencies | 8 | 1/2500 | 1/1000 | 1/1000 | 1/909 | 1/120 | 1/3333 | 1/2000 | 1/2500 |
| TIMGWTLDFL [BAX peptide 10] | recognised | – | – | – | – | – | – | – | – | – | – | – | – |

From patent publication US8399610B2, “HPV vaccine comprising peptides from host cell proteins” (University College Cardiff Consultants Limited, priority 2004, dated 2013)
